{
  "source": "patent US12485117B2",
  "about": "“Compositions and methods for activating signaling through the CB1 cannabinoid receptor for treating and preventing diseases and disorders characterized by abnormal cellular accumulation of sphingolipids such as sphingomyelin” (Wylder Nation Foundation, priority 2018, dated 2025)",
  "format_in_all_cases": "cell-based, mouse",
  "key": {"[1]": {"test_system": "wildtype cultured neurons", "experiment": "Sphingomyelin levels in wildtype cultured neurons", "conditions": "wildtype (FIG. 5D)", "from_the_text": "(§1) FIGS. 5A-5D show sphingomyelin and endocannabinoid levels in cultured primary hippocampal neurons and hippocampal tissue, respectively, from ASMko and wildtype mice.\nIt has been shown that mGluR activation promotes 2-AG synthesis and CB1 stimulation (Maccarrone et al., Nat Neurosci 2008). We therefore sought to determine whether activation of mGluR5 with the allosteric activator CDPPB might induce sphingomyelin breakdown in ASMko neurons. […] Thus, the effect of decreased CB1 expression might be further exacerbated by decrease in endogenous endocannabinoid signaling, at least via 2-AG."}, "[2]": {"test_system": "cultured primary hippocampal neurons from ASMko mice", "experiment": "Sphingomyelin levels by enzymatic assay in cultured primary hippocampal neurons from ASMko mice", "from_the_text": "as §1\nStatistical significance Student's t-test, *P<0.05, **P<0.005, n=3 independent cultures.\nStatistical significance Student's t-test, **P<0.005, n=3 independent cultures.\nAnandamide (AEA) is the major endogenous CB1 ligand. We therefore tested whether increased levels of anandamide affected sphingomyelin levels in cultured primary hippocampal neurons from ASMko mice. Anandamide was increased in two ways: • 1. By incubating the neuronal cultures with exogenous anandamide; and • 2. By incubating the neuronal cultures with PF-04457845, which is an inhibitor of the anandamide hydrolytic enzyme FAAH. Inhibition of FAAH causes accumulation of anandamide by inhibiting FAAH-mediated hydrolyzation of anandamide.\nThe following experiments were performed in three independent cultures of hippocampal neurons derived from ASMko mice. Treatments were done at 11-13 days in vitro when these cells are considered mature and functional.\nTo set the optimal conditions for such hydrolysis in terms of concentration and time of incubation, anandamide was added to the culture medium of mature ASMko hippocampal neurons at 0, 5, 25, 50 and 100 μM for 30 minutes or 1 hour. […] The optimal conditions for SM degradation were in a range of concentration of 25-50 μM for 1 hour. […] We therefore decided to use 25 μM anandamide for 1-hour incubation time in our next experiments.\nSimilar to the anandamide dose/time response experiment above, we performed another dose response experiment using URB597 (URB), an inhibitor of the anandamide-hydrolyzing enzyme FAAH, to be used as reference for the other FAAH inhibitors. The experiments were done in the presence or absence of exogenous anandamide. URB was added to the culture medium of ASMko mature neurons at 0, 5, 25 and 50 μM for 1 hour with or without □□ μM anandamide.\nWe next compared URB efficacy to reduce SM levels with that of other FAAH inhibitors PF-04457845 (PF) and JNJ-1661010 (JNJ)."}, "ASMko cultured neurons [3]": {"test_system": "ASMko cultured neurons", "experiment": "MAP2 immunofluorescence of dendrites in ASMko cultured neurons", "conditions": "50 μM for 1 hour"}, "[4]": {"test_system": "permeabilized ASMko neurons", "experiment": "Lysenin staining of SM in intracellular compartments of permeabilized ASMko neurons", "conditions": "1 hour at 50 μM (FIG. 9)", "protocol": "Statistical significance Student's t-test, *P<0.05, n=3 independent cultures.\nTo determine whether SM hydrolysis induced by FAAH inhibitors was taking place not only at the cell surface, but also in intracellular compartments, we performed staining with lysenin, a worm toxin that specifically binds to SM, in permeabilized ASMko neurons non-treated or treated with anandamide, URB, PF-04457845 or JNJ for 1 hour at 50 μM."}, "ASMko cultured neurons [5]": {"test_system": "ASMko cultured neurons", "experiment": "TUNEL assay of neuronal death in ASMko cultured neurons", "conditions": "50 μM for 1 hour", "protocol": "FIG. 10B is a graph showing mean±SEM percentage of apoptotic cells, measured by TUNEL assay, with respect to the positive control in which the cells were treated with H202.\nThe percentage of dying neurons showing DNA fragmentation was 5-8% in the treated ASMko cultures similar to the non-treated ones."}},
  "data": [
    {"smiles": "N#Cc1cccc(C(=O)Nc2cc(-c3ccccc3)nn2-c2ccccc2)c1", "note": "[CDPPB, 3-Cyano-N-(1,3-diphenyl-1H-pyrazol-5-yl)benzamide]", "values": [
      {"measurement": "sphingomyelin levels", "setting": "[1]", "value": "did not affect sphingomyelin levels"},
      {"measurement": "sphingomyelin levels", "setting": "[2]; 15 μM, ASMko cultured neurons (FIG. 5D)", "value": "significant decreases in sphingomyelin levels"}
    ]},
    {"smiles": "Cl.Cl.O=C(/C=C/c1ccc(/C=C/C(=O)Nc2ccc(C3=NCCN3)cc2)cc1)Nc1ccc(C2=NCCN2)cc1", "note": "[GW4869]", "values": [
      {"measurement": "effect of co-incubation with the neutral sphingomyelinase inhibitor on the sphingomyelin reduction by anandamide or PF-04457845", "setting": "[2]; ASMko neurons, 1 hour (FIG. 5A)", "value": "prevented"}
    ]},
    {"smiles": "O=C(Nc1ccccc1)N1CCN(c2nc(-c3ccccc3)ns2)CC1", "note": "[JNJ-1661010]", "values": [
      {"measurement": "morphology, length, appearance of dendrites (MAP2)", "setting": "ASMko cultured neurons [3]", "value": "did not alter the morphology, length or homogeneous appearance of dendrites"},
      {"measurement": "SM levels in intracellular compartments (lysenin staining)", "setting": "[4]", "value": "variable tendency to SM reduction that was not statistically significant"},
      {"measurement": "SM hydrolysis", "setting": "[2]; 50 μM and 1 hour (FIG. 8)", "value": "promoted SM hydrolysis"},
      {"measurement": "neuronal death as assessed by TUNEL", "setting": "ASMko cultured neurons [5]", "value": "did not induce neuronal death"}
    ]},
    {"smiles": "NC(=O)c1cccc(-c2cccc(OC(=O)NC3CCCCC3)c2)c1", "note": "[URB597]", "values": [
      {"measurement": "morphology, length, appearance of dendrites (MAP2)", "setting": "ASMko cultured neurons [3]", "value": "did not alter the morphology, length or homogeneous appearance of dendrites"},
      {"measurement": "SM levels in intracellular compartments (lysenin staining)", "setting": "[4]", "value": "significantly reduced SM levels"},
      {"measurement": "SM levels, dose response", "setting": "[2]; 0, 5, 25 and 50 μM for 1 hour, without exogenous anandamide (FIG. 7)", "value": "dose dependent reduction of SM levels"},
      {"measurement": "SM hydrolysis", "setting": "[2]; 50 μM and 1 hour (FIG. 8)", "value": "promoted SM hydrolysis"},
      {"measurement": "efficacy to reduce SM levels compared among FAAH inhibitors", "setting": "[2]; 50 μM and 1 hour (FIG. 8)", "value": "most reliable and efficient"},
      {"measurement": "neuronal death as assessed by TUNEL", "setting": "ASMko cultured neurons [5]", "value": "did not induce neuronal death"}
    ]},
    {"smiles": "CCCCC/C=C\\C/C=C\\C/C=C\\C/C=C\\CCCC(=O)NCCO", "note": "[anandamide]", "values": [
      {"measurement": "morphology, length, appearance of dendrites (MAP2)", "setting": "ASMko cultured neurons [3]", "value": "did not alter the morphology, length or homogeneous appearance of dendrites"},
      {"measurement": "SM levels in intracellular compartments (lysenin staining)", "setting": "[4]", "value": "variable tendency to SM reduction that was not statistically significant"},
      {"measurement": "SM hydrolysis, dose and time response", "setting": "[2]; 0, 5, 25, 50 and 100 μM for 30 minutes or 1 hour (FIG. 6)", "value": "induced SM hydrolysis in a dose and time dependent manner"},
      {"measurement": "SM reduction at very high concentration", "setting": "[2]; 100 μM", "value": "SM reduction was prevented"},
      {"measurement": "optimal concentration for SM degradation", "setting": "[2]; 1 hour", "value": "25 to 50", "unit": "µM"},
      {"measurement": "sphingomyelin levels", "setting": "[2]; ASMko neurons, 1 hour incubation (FIG. 5A)", "value": "reduced sphingomyelin levels"},
      {"measurement": "effect of addition of exogenous anandamide on SM hydrolysis by FAAH inhibitors", "setting": "[2]; FAAH inhibitors at 50 μM, 1 hour", "value": "did not further enhance SM hydrolysis"},
      {"measurement": "SM reduction with URB and anandamide versus URB alone", "setting": "[2]; URB concentrations other than the lowest, 1 hour", "value": "SM reduction was similar"},
      {"measurement": "effect of anandamide addition on SM reduction by URB", "setting": "[2]; lowest URB concentration, 1 hour", "value": "synergized the action of URB"},
      {"measurement": "neuronal death as assessed by TUNEL", "setting": "ASMko cultured neurons [5]", "value": "did not induce neuronal death"}
    ]}
  ]
}
